Data on 13 compounds can be found in PubChem BioAssay (NCI).

Among the test systems are HS 578T breast; MDA-MB-231 breast; PC-3 prostate; RPMI-8226 leukemia; SF-539 CNS; UACC-62 melanoma; EKVX NSCLC; SNB-75 CNS; OVCAR-4 ovarian; SW-620 colon.
Common to all, as to assay: inhibition of tumour cell growth, NCI panel, 48 h

“And” between values parts separate entries of the source, which are not always exact repeats. Equal values may be shown once.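 96-well plates; 48 h exposure; 5 concentrations. Endpoints by linear interpolation between flanking doses. Not reached: highest tested concentration assigned. Abbreviation: GI50, concentration required for 50% inhibition of growth. Definition used: TGI = concentration required for complete inhibition of growth.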

With `CCOC(=O)c1c(NC(=S)NCc2ccccc2)sc2c1CCN(C)C2`, the TGI in the experiment with HS 578T breast, in the experiment with MDA-MB-231 breast, with PC-3 prostate, in the experiment with RPMI-8226 leukemia, with SF-539 CNS and in the experiment with UACC-62 melanoma was more than 100000 nM in each case. The TGI in the experiment on EKVX NSCLC is more than 100000 nM.

Consider `CC(C)(C)CC(C)(C)Cc1ccc(OCCOCC[N+](C)(C)Cc2ccccc2)cc1`, for which the GI50 was 2030 nM in the experiment with HS 578T breast; 1510 nM in the experiment on MDA-MB-231 breast; 1700 nM in the experiment on SF-539 CNS; 1630 nM in the experiment on SNB-75 CNS; 1260 nM in the experiment with UACC-62 melanoma; 681 nM with OVCAR-4 ovarian. Moreover, the GI50 with SW-620 colon is 1640 nM. In addition, the TGI in the experiment with HS 578T breast amounted to 4750 nM; with MDA-MB-231 breast, 3080 nM; in the experiment with SF-539 CNS it was 3210 nM; in the experiment with SNB-75 CNS, 3470 nM; in the experiment with UACC-62 melanoma, 2540 nM; with OVCAR-4 ovarian, 3940 nM. The compound further gave a TGI with SW-620 colon of 3350 nM.

Turning to `CN1CCN(c2ccc3nc(-c4ccc(OCCCN5C(=O)c6cccc7cccc(c67)C5=O)cc4)[nH]c3c2)CC1`, the GI50 in the experiment with HS 578T breast was 2110 nM; in the experiment on MDA-MB-231 breast, 1410 nM; in the experiment with PC-3 prostate it was 2040 nM; in the experiment with RPMI-8226 leukemia it was 2580 nM; in the experiment on UACC-62 melanoma, 5180 nM; in the experiment with SW-620 colon, 1830 nM. In addition, the TGI was determined as 4600 nM with HS 578T breast; 2760 nM with MDA-MB-231 breast; 4950 nM in the experiment on PC-3 prostate; 7750 nM in the experiment with RPMI-8226 leukemia; 10100 nM with UACC-62 melanoma; 3440 nM in the experiment with SW-620 colon.

On to `COc1cc2c(cc1-c1c(C)noc1C)ncc1nc(C3CCCCC3)n(C3CCC(OC(F)F)CC3)c12` (stereo unspecified), for which the GI50 in the experiment with HS 578T breast is 3740 nM; in the experiment with MDA-MB-231 breast, 1720 nM; in the experiment with SNB-75 CNS it was 511 nM; with EKVX NSCLC, 2310 nM; in the experiment on OVCAR-4 ovarian it was 2170 nM. Also, the TGI with HS 578T breast, in the experiment on MDA-MB-231 breast, in the experiment with SNB-75 CNS, in the experiment on EKVX NSCLC and with OVCAR-4 ovarian was more than 100000 nM throughout.

For `COc1cccc2c1C(=O)c1c(O)c3c(c(O)c1C2=O)C[C@@](O)(C(C)=O)C[C@@H]3OC1CC(N)C(O)C(C)O1` (stereo partly specified), the GI50 was 53.4 nM in the experiment on MDA-MB-231 breast; 13.6 nM in the experiment with RPMI-8226 leukemia; 16.1 nM in the experiment on SNB-75 CNS; less than 16.6 nM in the experiment on UACC-62 melanoma; 266 nM with EKVX NSCLC; 64.3 nM with OVCAR-4 ovarian.

In the case of `NC(=O)c1cc2ccccc2c(N=Nc2ccccc2)c1O`, the TGI in the experiment on HS 578T breast, in the experiment with MDA-MB-231 breast, with PC-3 prostate, in the experiment on RPMI-8226 leukemia, in the experiment on SNB-75 CNS and in the experiment with UACC-62 melanoma was more than 100000 nM each time. Moreover, the TGI with EKVX NSCLC, in the experiment with OVCAR-4 ovarian and in the experiment on SW-620 colon was more than 100000 nM each time.

`CCP(=O)(CC)C(Cl)(Cl)C(=O)NC`: the TGI with HS 578T breast, in the experiment on MDA-MB-231 breast, with PC-3 prostate, in the experiment on RPMI-8226 leukemia, in the experiment with SNB-75 CNS and with OVCAR-4 ovarian was more than 100000 nM each time. The compound further yielded a TGI in the experiment on SW-620 colon of more than 100000 nM.

As to `N#Cc1ccc(Nc2nc3nc[nH]c3c(=O)[nH]2)cc1`, the TGI in the experiment with HS 578T breast, in the experiment with MDA-MB-231 breast, with PC-3 prostate, with RPMI-8226 leukemia, with SF-539 CNS and in the experiment with SNB-75 CNS was more than 100000 nM each time. For the same compound, the TGI in the experiment on UACC-62 melanoma, with EKVX NSCLC, in the experiment on OVCAR-4 ovarian and in the experiment on SW-620 colon was more than 100000 nM in each case.

On to `CC(=O)OC1CC2(O)C(CCC3(C)C(c4ccc(=O)oc4)CCC32O)C2(C)CCC(O)C=C12` (stereo unspecified), for which the GI50 with RPMI-8226 leukemia, in the experiment with SF-539 CNS, in the experiment on SNB-75 CNS, in the experiment with UACC-62 melanoma, in the experiment with EKVX NSCLC and in the experiment with OVCAR-4 ovarian was 37.5 nM each time. For the same compound, the GI50 with SW-620 colon is 10 nM. Further, the TGI was 134 nM and 80.3 nM with RPMI-8226 leukemia; 38.3 nM and 41.4 nM in the experiment with SF-539 CNS; 188 nM and 116 nM in the experiment on SNB-75 CNS; 82.7 nM and 47.8 nM in the experiment on UACC-62 melanoma; 123 nM and 47.7 nM in the experiment on EKVX NSCLC; 68.6 nM and 49.5 nM in the experiment with OVCAR-4 ovarian. The TGI with SW-620 colon was 170 nM and 56.1 nM.

For the compound `O=c1c(-c2ccccc2)c[nH]c2cc([N+](=O)[O-])c(/C(Cl)=C/c3ccccc3)cc12`, the TGI in the experiment with RPMI-8226 leukemia came to 9980 nM; with SF-539 CNS it was 27700 nM; in the experiment on SNB-75 CNS, 24100 nM; in the experiment on UACC-62 melanoma, 22600 nM; in the experiment on EKVX NSCLC it was 18600 nM; with OVCAR-4 ovarian, 8640 nM. This compound also came in with a TGI in the experiment with SW-620 colon of 26800 nM.

Take `Cc1c2cc[n+](C)cc2c(C)c2c1[nH]c1ccc(O)cc12`: the TGI in the experiment with HS 578T breast was 5700 nM; with MDA-MB-231 breast, more than 100000 nM; in the experiment with PC-3 prostate it was more than 100000 nM; in the experiment with RPMI-8226 leukemia it was more than 100000 nM; with SF-539 CNS it was 75200 nM; in the experiment with SNB-75 CNS it was 25700 nM. Besides, the TGI was 82100 nM in the experiment with UACC-62 melanoma, 83400 nM with EKVX NSCLC, more than 100000 nM with OVCAR-4 ovarian and more than 100000 nM in the experiment with SW-620 colon.

With `O=C(CCN1CCCC1)Nc1ccc2c(NCCCCc3ccccc3)c3ccccc3nc2c1`, the GI50 with MDA-MB-231 breast is 1150 nM; in the experiment on PC-3 prostate, 723 nM; with RPMI-8226 leukemia, 258 nM; with SF-539 CNS, 1440 nM; in the experiment on SNB-75 CNS it was 1330 nM; in the experiment with UACC-62 melanoma, 1670 nM. Also, the GI50 in the experiment with EKVX NSCLC was 1390 nM; in the experiment with OVCAR-4 ovarian, 1120 nM; with SW-620 colon it was 534 nM. Moreover, the TGI in the experiment with MDA-MB-231 breast stood at 2430 nM; with PC-3 prostate, 2090 nM; with RPMI-8226 leukemia, 837 nM; with SF-539 CNS, 2840 nM; in the experiment on SNB-75 CNS, 2650 nM; in the experiment with UACC-62 melanoma, 3120 nM. Further, the TGI with EKVX NSCLC stood at 2730 nM; in the experiment on OVCAR-4 ovarian, 2520 nM; in the experiment on SW-620 colon it was 1860 nM.

For `Cc1c2cc[n+](C)cc2c(COC2OC(CO)C(O)C2O)c2c3ccccc3n(C)c12` (stereo unspecified), the TGI was more than 100000 nM in the experiment with RPMI-8226 leukemia; more than 100000 nM with SF-539 CNS; 92400 nM in the experiment with SNB-75 CNS; more than 100000 nM with UACC-62 melanoma; more than 100000 nM in the experiment on EKVX NSCLC; more than 100000 nM in the experiment on OVCAR-4 ovarian. Moreover, in the experiment with SW-620 colon, the TGI is more than 100000 nM.
